Experimental data as given in publication PMC12056667 (Chemical Science, 2025).
Where two headings read alike, the source gives them in different places.

Legend:
Tet(X4) = Tet(X4) (Escherichia coli, UniProt A0A3T0V9Y5); test: FP competitive displacement of probe 6; format: binding; conditions: 25 nM 6, 40 nM Tet(X4), 5 mM MgCl2, 1 μM FAD, 100 mM Tris pH 7.0, 0.01% Triton X-100
Experimental: A 2× solution containing 80 nM Tet(X4), 2 μM FAD and 10 mM MgCl2 in the assay buffer was dispensed into the first 22 columns of a 384-well black, non-binding microtiter plate (Greiner Bio-One), 12.5 μL per well, using a microplate reagent dispenser. A solution of 2 μM FAD and 10 mM MgCl2 in the assay buffer was dispensed into the remaining columns to serve as a no enzyme control. A 3-fold, 10-point dilution series of substrates and inhibitors was made in DMSO in a V-bottom 96-well plate (Greiner Bio-One) with a highest concentration of 5 mM or 0.5 mM. Into one column was added DMSO with no inhibitor or substrate, to serve as a positive control. Tigecycline was included as a reference on every plate to ensure reproducibility. 0.5 μL of each dilution was transferred in quadruplicate to the 384-well plate containing enzyme solution using a CyBi-Well liquid-handling robot (CyBio). A solution of 50 nM 6 in the assay buffer was then dispensed, with 12.5 μL per well. The plate was briefly centrifuged (1000 rpm), then incubated at ambient temperature for 30 min prior to measuring the FP. Data points were normalised between the positive and negative controls. Normalised % response was plotted as a function of log10([Inhibitor]), and the IC50^app was determined by fitting the data to the equation: Y = Bottom + (top-bottom)/(1 + 10^Log(IC50) − X) × HillSlope in GraphPad Prism 9.4.1, where Y = % response and X = log10([Inhibitor]). Wells with unusual fluorescence intensities were manually identified and removed from the analysis. […]

[1] = system: Acinetobacter spp. NT3-1 – tet(X3); test: microbe, parasite or virus in culture; format: cell-based
Experimental: (§1) MIC tests and checkerboard assays were performed in U-bottom, 96-well microtiter plates using a modified broth microdilution protocol following CLSI guidelines. Cation-adjusted Mueller-Hinton Broth (CAMHB) was prepared fresh on the day of testing.[74] In brief, assays were set up in a total volume of 100 μL per well and titrations comprised seven 2-fold dilutions of inhibitors and ten 2-fold dilutions of tigecycline in CAMHB. Bacterial colonies were selected from an overnight culture on MHA plates (supplemented with 0.2%w/vL-arabinose for E. coli TOP10 containing pBAD-TOPO-Tet(X4)) and were suspended in 0.9% saline solution to achieve a 0.5 McFarland standard. A 100 μL aliquot of this suspension was then diluted into 9.9 mL of CAMHB to yield approximately 1.5 × 10^6 cfu mL^−1. 50 μL of the suspension was then added to each well of a microtiter plates. Plates were incubated at 37 °C for 18 h. At least 2 replicates were conducted for each combination. E. coli TOP10 + pBAD-TOPO-Tet(X4) cells were grown in the absence and presence of 0.2%w/vL-arabinose. Analysis of the MIC and checkerboard results were carried out by visual inspection of growth, with and without resazurin dye, an oxidation–reduction indicator.[75] As a measure of synergy, fractional inhibitory concentration index (FICI) was calculated as FICA + FICB, where FICA and FICB are the MICcombination/MICalone for each agent, respectively.[76] Results were interpreted as follows: synergistic (<0.5), indifferent (1.0–4.0) or antagonistic (>4.0).[64] In cases where the MIC exceeded or was below the measured range, the borderline value was taken to calculate the FIC index.

[2] = system: Salmonella enterica T-2a – tet(X4); test: microbe, parasite or virus in culture; format: cell-based
Experimental: as §1

[3] = system: Acinetobacter baumannii NT5-1 – tet(X5); test: microbe, parasite or virus in culture; format: cell-based
Experimental: as §1, with “In brief, assays were set up in a total volume of 100 μL per well and titrations comprised seven 2-fold dilutions of inhibitors and ten 2-fold dilutions of tigecycline in CAMHB.” left out

[4] = system: Escherichia coli T-24a – tet(X4); test: microbe, parasite or virus in culture; format: cell-based
Experimental: as §1, with “In brief, assays were set up in a total volume of 100 μL per well and titrations comprised seven 2-fold dilutions of inhibitors and ten 2-fold dilutions of tigecycline in CAMHB.” left out

[5] = system: Proteus penneri NT6-2 – tet(X6); test: microbe, parasite or virus in culture; format: cell-based
Experimental: as §1, with “In brief, assays were set up in a total volume of 100 μL per well and titrations comprised seven 2-fold dilutions of inhibitors and ten 2-fold dilutions of tigecycline in CAMHB.” left out

[6] = system: E. coli TOP10 containing plasmid pBAD-TOPO-Tet(X4); test: Broth microdilution MIC and checkerboard assay; format: cell-based, Escherichia coli; conditions: alone; without L-arabinose induction
Source text: Tet(X4) was sub-cloned from the Tet(X4) pET28b-(+) expression vector via TOPO cloning. The insert was amplified using the taq polymerase with the forward primer 5′- […]-3′ and the reverse primer 5′- […]-3’. Following PCR purification (Thermo Fisher Scientific), the A-tailed PCR product was ligated into the pBAD-TOPO vector using a TOPO cloning kit (Invitrogen) according to the manufacturer's protocol. Following amplification in E. coli NEB5α cells (NEBiolabs), the fidelity of the insert was confirmed by Sanger sequencing (Eurofins). For microbiological experiments, E. coli TOP10 cells were used as the recipient strain. Cells were plated on Mueller-Hinton agar (MHA) plates containing ampicillin at 100 μg mL^−1. The introduction of pBAD-TOPO-Tet(X4) was confirmed by colony PCR. Strains were stored in a freezer at −80 °C in cryopreservation beads.
as §1, with “In brief, assays were set up in a total volume of 100 μL per well and titrations comprised seven 2-fold dilutions of inhibitors and ten 2-fold dilutions of tigecycline in CAMHB.” left out

[7] = IC50app, Tet(X4) (Polarization)
[8] = inhibitor in combination with tigecycline, lowest FICI
[9] = tigecycline in combination with the inhibitor, lowest FICI

With `CCN(CC)C(=S)SSC(=S)N(CC)CC` [Disulfiram] the IC50 (Tet(X4); [7]) was > 100 µM.
With `NCCS` [Cysteamine] the IC50 (Tet(X4); read-out: IC50app, Tet(X4) (Polarization)) was > 100 µM.
With `Nc1ccc2cc3ccc(N)cc3nc2c1` [Proflavine] the IC50 (Tet(X4); [7]) was > 100 µM.
`Nc1nc2c(c(=O)[nH]1)N(C=O)C(CNc1ccc(C(=O)N[C@@H](CCC(=O)O)C(=O)O)cc1)CN2` (stereo partly shown) [Calcium folinate] was tested, and the IC50 (Tet(X4); [7]) was > 100 µM.
`C[C@@H](Oc1cc(-c2cnn(C3CCNCC3)c2)cnc1N)c1c(Cl)ccc(F)c1Cl` [Crizotinib] was tested, and the IC50 (Tet(X4); [7]) was > 100 µM.
In the case of `C[C@]12CCC(=O)C=C1[C@@H]1C[C@@H]1[C@H]1[C@@H]3[C@@H]4C[C@@H]4[C@@]4(CCC(=O)O4)[C@@]3(C)CC[C@@H]12` [Drosperinone], the “Tet(X) inhibitor MIC” value ([1]; alone, Acinetobacter spp. NT3-1) is reported as 128 µg/mL, the “Combination (Antibiotic/Inhibitor) MICs: inhibitor” value [1, 8] is reported as 128 µg/mL and the “Combination (Antibiotic/Inhibitor) MICs: antibiotic” value [1, 9] is reported as 4 µg/mL. The FICI ([1]; with tigecycline) was 2, the Outcome ([1]; with tigecycline) was “indifferent (indifferent (0.5-4.0))” and the “Combination (Antibiotic/Inhibitor) MICs: antibiotic” value [2, 9] was 16 µg/mL. For the same molecule, the FICI ([2]; with tigecycline) was 1.5, the Outcome ([2]; with tigecycline) was “indifferent (indifferent (0.5-4.0))” and the “Tet(X) inhibitor MIC” value ([3]; alone, A. baumannii NT5-1) was > 128 µg/mL. For the same molecule, the “Combination (Antibiotic/Inhibitor) MICs: inhibitor” value [3, 8] was 128 µg/mL, the “Combination (Antibiotic/Inhibitor) MICs: antibiotic” value [3, 9] was 4 µg/mL and the FICI ([3]; with tigecycline) was 1.5. The Outcome ([3]; with tigecycline) was “indifferent (indifferent (0.5-4.0))”, the “Tet(X) inhibitor MIC” value ([4]; alone, E. coli T-24a) was 256 µg/mL and the “Combination (Antibiotic/Inhibitor) MICs: antibiotic” value [4, 9] was 8 µg/mL. The FICI ([4]; with tigecycline) was 1, the Outcome ([4]; with tigecycline) was “indifferent (indifferent (0.5-4.0))” and the “Tet(X) inhibitor MIC” value ([5]; alone, P. penneri NT6-2) was > 128 µg/mL. The “Combination (Antibiotic/Inhibitor) MICs: inhibitor” value [5, 8] was 128 µg/mL, the “Combination (Antibiotic/Inhibitor) MICs: antibiotic” value [5, 9] was 8 µg/mL and the FICI ([5]; with tigecycline) was 2. For the same molecule, the Outcome ([5]; with tigecycline) was “indifferent (indifferent (0.5-4.0))”.
`CN(C)[C@@H]1C(O)=C(C(N)=O)C(=O)[C@@]2(O)C(O)=C3C(=O)c4c(O)ccc(Cl)c4[C@@](C)(O)[C@H]3C[C@@H]12` [Chlortetracycline] showed an IC50 (Tet(X4); IC50app, FP assay) of 0.039 ± 0.0096 µM.
In the case of `CON(C)Cc1ccc(O)c2c1C[C@H]1C[C@H]3[C@H](N(C)C)C(O)=C(C(N)=O)C(=O)[C@@]3(O)C(O)=C1C2=O` [Sarecycline], the IC50 (Tet(X4); IC50app, FP assay) is reported as 0.0315 ± 0.01 µM.
`CCC1(c2cnc[nH]2)Cc2ccccc2C1` [Atipamezole] was tested, and the IC50 (Tet(X4); [7]) was > 100 µM.
`C=C1c2cccc(O)c2C(=O)C2=C(O)[C@]3(O)C(=O)C(C(N)=O)=C(O)[C@@H](N(C)C)[C@@H]3[C@@H](O)[C@H]12` [Methacycline] was tested, and the IC50 (Tet(X4); IC50app, FP assay) was 0.311 ± 0.036 µM.
In the case of `CN(C)[C@@H]1C(O)=C(C(N)=O)C(=O)[C@@]2(O)C(O)=C3C(=O)c4c(O)cccc4[C@@](C)(O)[C@H]3[C@H](O)[C@@H]12` [Oxytetracycline], the IC50 (Tet(X4); IC50app, FP assay) is reported as 4.43 ± 0.26 µM.
`CN(C)c1ccc(O)c2c1C[C@H]1C[C@H]3[C@H](N(C)C)C(O)=C(C(N)=O)C(=O)[C@@]3(O)C(O)=C1C2=O` [Minocycline] was tested, and the IC50 (Tet(X4); IC50app, FP assay) was 0.0515 ± 0.0036 µM.
`N=C(N)c1ccc(/N=N/Nc2ccc(C(=N)N)cc2)cc1` [Diminazene] was tested, and the IC50 (Tet(X4); [7]) was > 100 µM.
`CN(C)[C@@H]1C(O)=C(C(N)=O)C(=O)[C@@]2(O)C(O)=C3C(=O)c4c(O)cccc4C[C@H]3C[C@@H]12` [Sancycline] was tested, and the IC50 (Tet(X4); IC50app, FP assay) was 0.047 ± 0.0071 µM.
`CN(C)[C@@H]1C(O)=C(C(N)=O)C(=O)[C@@]2(O)C(O)=C3C(=O)c4c(O)c(NC(=O)CN5CCCC5)cc(F)c4C[C@H]3C[C@@H]12` [Eravacycline] showed an IC50 (Tet(X4); IC50app, FP assay) of 0.0137 ± 0.0016 µM.
In the case of `COc1ccnc(C[S+]([O-])c2nc3cc(-n4cccc4)ccc3[nH]2)c1C` (stereo not shown) [Ilaprazole], the IC50 (Tet(X4); [7]) is reported as > 100 µM.
`CN(C)[C@@H]1C(O)=C(C(N)=O)C(=O)[C@@]2(O)C(O)=C3C(=O)c4c(O)ccc(Cl)c4[C@@H](O)[C@H]3C[C@@H]12` [Demeclocycline] showed an IC50 (Tet(X4); IC50app, FP assay) of 0.029 ± 0.0046 µM.
For `NC(=O)c1ncn([C@@H]2O[C@H](CO)[C@@H](O)[C@H]2O)c1O` [Mizoribine], the IC50 (Tet(X4); [7]) was > 100 µM.
For `CN(C)[C@@H]1C(O)=C(C(N)=O)C(=O)[C@@]2(O)C(O)=C3C(=O)c4c(O)cccc4[C@@](C)(O)[C@H]3C[C@@H]12` [Tetracycline], the IC50 (Tet(X4); IC50app, FP assay) was 0.0696 ± 0.0088 µM and the “Antibiotic MIC” value [6] was 4 µg/mL.
With `NCCc1ccc(O)c(O)c1` [Dopamine] the IC50 (Tet(X4); [7]) was > 100 µM.
In the case of `CN(C)c1cc(CNCC(C)(C)C)c(O)c2c1C[C@H]1C[C@H]3[C@H](N(C)C)C(O)=C(C(N)=O)C(=O)[C@@]3(O)C(O)=C1C2=O` [Omadacycline], the IC50 (Tet(X4); IC50app, FP assay) is reported as 0.0243 ± 0.004 µM.
